Key:
Assay in all cases: KINOMEscan competition binding
Conditions in all cases: compound 10.0 µM
TEK (human) = TEK (human) (UniProt Q02763)
NTRK1 (human) = NTRK1 (human) (UniProt P04629)
MKNK2 (human) = MKNK2 (human) (UniProt Q9HBH9)
RIOK2 (human) = RIOK2 (human) (UniProt Q9BVS4)
NUAK2 (human) = NUAK2 (human) (UniProt Q9H093)
MAPK14 (human) = MAPK14 (human) (UniProt Q16539)
RET (human) = RET (human) (UniProt P07949)
CSNK1G2 (human) = CSNK1G2 (human) (UniProt P78368)
MARK3 (human) = MARK3 (human) (UniProt P27448)
MAPK3 (human) = MAPK3 (human) (UniProt P27361)
ADCK3 (human) = ADCK3 (human) (UniProt Q8NI60)
PLK3 (human) = PLK3 (human) (UniProt Q9H4B4)
CHUK (human) = CHUK (human) (UniProt O15111)
PIM2 (human) = PIM2 (human) (UniProt Q9P1W9)
WNK1 (human) = WNK1 (human) (UniProt Q9H4A3)
[1] = molecular target: JAK3 JH1 catalytic (human) (UniProt P52333)
TSSK1B (human) = TSSK1B (human) (UniProt Q9BXA7)
RPS6KB1 (human) = RPS6KB1 (human) (UniProt P23443)
SRC (human) = SRC (human) (UniProt P12931)
ERN1 (human) = ERN1 (human) (UniProt O75460)
MAP4K1 (human) = MAP4K1 (human) (UniProt Q92918)
PTK2 (human) = PTK2 (human) (UniProt Q05397)
PDGFRA (human) = PDGFRA (human) (UniProt P16234)
CSNK1A1 (human) = CSNK1A1 (human) (UniProt P48729)
PAK4 (human) = PAK4 (human) (UniProt O96013)
MAP2K2 (human) = MAP2K2 (human) (UniProt P36507)
PIK3CA (human) = PIK3CA (human) (UniProt P42336)
MATK (human) = MATK (human) (UniProt P42679)
AXL (human) = AXL (human) (UniProt P30530)
NEK1 (human) = NEK1 (human) (UniProt Q96PY6)
MAP3K9 (human) = MAP3K9 (human) (UniProt P80192)
MAP3K13 (human) = MAP3K13 (human) (UniProt O43283)
PAK2 (human) = PAK2 (human) (UniProt Q13177)
STK25 (human) = STK25 (human) (UniProt O00506)
AKT2 (human) = AKT2 (human) (UniProt P31751)
MAPK8 (human) = MAPK8 (human) (UniProt P45983)
[2] = molecular target: TYK2 JH1 catalytic (human) (UniProt P29597)
ANKK1 (human) = ANKK1 (human) (UniProt Q8NFD2)
PRKCE (human) = PRKCE (human) (UniProt Q02156)
CAMK2A (human) = CAMK2A (human) (UniProt Q9UQM7)
STK16 (human) = STK16 (human) (UniProt O75716)

SRC (human), sequence (P12931 whole entry, looked up): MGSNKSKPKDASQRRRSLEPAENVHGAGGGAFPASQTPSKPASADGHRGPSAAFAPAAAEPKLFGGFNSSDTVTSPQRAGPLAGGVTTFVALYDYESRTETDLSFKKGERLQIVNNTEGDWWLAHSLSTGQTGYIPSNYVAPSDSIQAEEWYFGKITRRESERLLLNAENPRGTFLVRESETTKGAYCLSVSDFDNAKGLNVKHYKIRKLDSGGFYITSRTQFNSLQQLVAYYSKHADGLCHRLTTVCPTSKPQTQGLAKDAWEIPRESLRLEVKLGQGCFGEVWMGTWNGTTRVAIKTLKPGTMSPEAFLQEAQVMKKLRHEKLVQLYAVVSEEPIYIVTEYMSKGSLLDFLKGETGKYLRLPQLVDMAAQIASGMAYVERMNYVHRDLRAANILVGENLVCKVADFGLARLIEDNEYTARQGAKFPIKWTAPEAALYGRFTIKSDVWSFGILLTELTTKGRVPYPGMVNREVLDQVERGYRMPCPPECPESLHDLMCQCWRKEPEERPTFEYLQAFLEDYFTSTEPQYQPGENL
MAPK14 (human), sequence (Q16539 whole entry, looked up): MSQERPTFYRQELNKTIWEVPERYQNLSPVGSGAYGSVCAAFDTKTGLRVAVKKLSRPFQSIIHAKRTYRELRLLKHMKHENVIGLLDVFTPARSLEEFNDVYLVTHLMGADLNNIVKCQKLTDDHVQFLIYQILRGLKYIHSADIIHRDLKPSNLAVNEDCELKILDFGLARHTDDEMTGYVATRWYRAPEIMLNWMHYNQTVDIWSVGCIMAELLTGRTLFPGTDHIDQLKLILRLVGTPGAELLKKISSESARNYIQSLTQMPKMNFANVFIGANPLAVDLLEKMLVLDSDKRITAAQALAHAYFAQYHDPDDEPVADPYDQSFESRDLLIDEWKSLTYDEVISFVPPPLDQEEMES
PIK3CA (human), sequence (P42336 whole entry, looked up): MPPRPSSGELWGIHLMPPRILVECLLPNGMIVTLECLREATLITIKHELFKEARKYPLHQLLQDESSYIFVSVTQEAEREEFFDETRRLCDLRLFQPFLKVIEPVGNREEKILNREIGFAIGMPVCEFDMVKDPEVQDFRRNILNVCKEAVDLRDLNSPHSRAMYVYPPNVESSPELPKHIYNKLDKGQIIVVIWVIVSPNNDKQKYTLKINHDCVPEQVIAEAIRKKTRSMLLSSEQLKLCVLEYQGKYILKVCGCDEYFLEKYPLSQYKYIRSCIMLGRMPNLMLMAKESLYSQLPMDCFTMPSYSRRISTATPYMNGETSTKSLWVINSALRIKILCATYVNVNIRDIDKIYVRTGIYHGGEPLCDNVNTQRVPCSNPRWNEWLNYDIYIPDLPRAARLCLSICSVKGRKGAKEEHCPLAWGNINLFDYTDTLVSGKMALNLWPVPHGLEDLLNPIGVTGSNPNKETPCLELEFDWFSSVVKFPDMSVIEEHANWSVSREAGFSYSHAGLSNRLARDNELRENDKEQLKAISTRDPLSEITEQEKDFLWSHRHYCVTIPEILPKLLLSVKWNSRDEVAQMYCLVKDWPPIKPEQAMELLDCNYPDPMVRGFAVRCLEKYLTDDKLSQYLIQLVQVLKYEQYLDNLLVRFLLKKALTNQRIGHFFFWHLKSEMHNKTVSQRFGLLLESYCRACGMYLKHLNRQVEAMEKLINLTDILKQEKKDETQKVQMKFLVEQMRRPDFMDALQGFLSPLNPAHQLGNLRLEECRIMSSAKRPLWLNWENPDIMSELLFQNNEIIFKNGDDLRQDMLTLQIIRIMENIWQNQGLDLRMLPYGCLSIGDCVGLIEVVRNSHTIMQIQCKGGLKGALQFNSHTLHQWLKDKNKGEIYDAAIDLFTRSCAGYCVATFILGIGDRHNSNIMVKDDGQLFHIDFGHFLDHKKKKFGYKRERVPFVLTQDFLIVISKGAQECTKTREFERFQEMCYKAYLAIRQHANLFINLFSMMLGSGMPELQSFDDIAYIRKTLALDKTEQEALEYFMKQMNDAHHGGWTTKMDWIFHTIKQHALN
WNK1 (human), sequence (Q9H4A3 whole entry, looked up): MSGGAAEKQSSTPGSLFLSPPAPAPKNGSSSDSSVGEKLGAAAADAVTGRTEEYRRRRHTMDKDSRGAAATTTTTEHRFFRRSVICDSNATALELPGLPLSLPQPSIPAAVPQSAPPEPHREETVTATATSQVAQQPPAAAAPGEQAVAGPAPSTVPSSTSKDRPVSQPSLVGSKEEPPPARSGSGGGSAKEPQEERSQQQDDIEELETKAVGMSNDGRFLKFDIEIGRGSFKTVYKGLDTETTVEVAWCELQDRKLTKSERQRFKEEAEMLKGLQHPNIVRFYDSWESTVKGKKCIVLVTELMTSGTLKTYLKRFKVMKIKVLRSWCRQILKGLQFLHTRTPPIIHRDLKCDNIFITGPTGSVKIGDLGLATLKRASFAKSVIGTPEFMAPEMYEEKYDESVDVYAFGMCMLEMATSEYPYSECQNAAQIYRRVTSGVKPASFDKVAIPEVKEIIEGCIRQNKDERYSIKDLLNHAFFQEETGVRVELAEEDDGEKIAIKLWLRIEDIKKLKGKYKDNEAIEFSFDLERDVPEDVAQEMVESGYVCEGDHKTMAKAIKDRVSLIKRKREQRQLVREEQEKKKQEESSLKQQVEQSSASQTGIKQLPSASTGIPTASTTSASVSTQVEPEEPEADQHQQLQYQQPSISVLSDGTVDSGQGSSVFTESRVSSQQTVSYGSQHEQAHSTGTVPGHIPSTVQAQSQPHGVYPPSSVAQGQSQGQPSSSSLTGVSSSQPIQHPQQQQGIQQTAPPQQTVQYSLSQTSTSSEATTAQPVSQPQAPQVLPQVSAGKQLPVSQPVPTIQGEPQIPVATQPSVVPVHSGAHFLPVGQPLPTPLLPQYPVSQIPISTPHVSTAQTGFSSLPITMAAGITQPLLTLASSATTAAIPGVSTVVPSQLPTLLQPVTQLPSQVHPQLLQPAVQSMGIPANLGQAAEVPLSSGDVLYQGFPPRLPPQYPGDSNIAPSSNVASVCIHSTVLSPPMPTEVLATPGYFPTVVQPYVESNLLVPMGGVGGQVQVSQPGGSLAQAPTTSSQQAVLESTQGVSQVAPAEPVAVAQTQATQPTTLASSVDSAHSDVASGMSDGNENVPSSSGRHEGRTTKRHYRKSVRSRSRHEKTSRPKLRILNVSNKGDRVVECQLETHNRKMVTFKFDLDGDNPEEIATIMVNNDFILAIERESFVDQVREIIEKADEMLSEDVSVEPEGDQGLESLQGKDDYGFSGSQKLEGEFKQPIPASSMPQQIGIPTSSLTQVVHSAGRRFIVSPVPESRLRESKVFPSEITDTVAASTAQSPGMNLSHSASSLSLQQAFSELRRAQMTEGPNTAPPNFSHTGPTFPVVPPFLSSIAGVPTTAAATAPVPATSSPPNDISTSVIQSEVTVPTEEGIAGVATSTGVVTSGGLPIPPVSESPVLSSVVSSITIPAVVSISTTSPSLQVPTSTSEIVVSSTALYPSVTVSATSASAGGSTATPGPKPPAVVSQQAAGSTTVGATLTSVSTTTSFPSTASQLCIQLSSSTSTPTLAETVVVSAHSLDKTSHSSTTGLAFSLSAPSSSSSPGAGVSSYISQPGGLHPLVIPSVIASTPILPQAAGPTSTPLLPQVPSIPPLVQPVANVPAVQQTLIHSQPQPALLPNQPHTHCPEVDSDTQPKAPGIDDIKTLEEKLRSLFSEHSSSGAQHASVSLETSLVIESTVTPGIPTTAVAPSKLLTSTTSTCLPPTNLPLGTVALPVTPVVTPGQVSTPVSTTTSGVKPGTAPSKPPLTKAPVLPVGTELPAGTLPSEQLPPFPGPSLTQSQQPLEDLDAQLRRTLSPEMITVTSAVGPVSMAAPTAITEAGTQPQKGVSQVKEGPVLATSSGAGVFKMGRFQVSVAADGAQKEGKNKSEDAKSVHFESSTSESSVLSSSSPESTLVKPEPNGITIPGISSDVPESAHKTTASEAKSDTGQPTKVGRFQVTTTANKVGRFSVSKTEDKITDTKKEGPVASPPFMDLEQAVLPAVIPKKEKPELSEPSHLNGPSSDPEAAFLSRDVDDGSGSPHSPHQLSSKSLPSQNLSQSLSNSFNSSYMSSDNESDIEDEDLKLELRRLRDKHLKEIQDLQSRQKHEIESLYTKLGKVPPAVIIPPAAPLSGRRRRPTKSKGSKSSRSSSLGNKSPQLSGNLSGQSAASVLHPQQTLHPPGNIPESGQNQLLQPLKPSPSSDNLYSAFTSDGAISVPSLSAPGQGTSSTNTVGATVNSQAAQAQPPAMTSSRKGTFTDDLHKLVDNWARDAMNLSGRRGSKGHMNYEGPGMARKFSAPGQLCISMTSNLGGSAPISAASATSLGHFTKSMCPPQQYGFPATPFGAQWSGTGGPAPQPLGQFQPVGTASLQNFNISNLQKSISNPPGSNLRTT
RPS6KB1 (human), sequence (P23443 whole entry, looked up): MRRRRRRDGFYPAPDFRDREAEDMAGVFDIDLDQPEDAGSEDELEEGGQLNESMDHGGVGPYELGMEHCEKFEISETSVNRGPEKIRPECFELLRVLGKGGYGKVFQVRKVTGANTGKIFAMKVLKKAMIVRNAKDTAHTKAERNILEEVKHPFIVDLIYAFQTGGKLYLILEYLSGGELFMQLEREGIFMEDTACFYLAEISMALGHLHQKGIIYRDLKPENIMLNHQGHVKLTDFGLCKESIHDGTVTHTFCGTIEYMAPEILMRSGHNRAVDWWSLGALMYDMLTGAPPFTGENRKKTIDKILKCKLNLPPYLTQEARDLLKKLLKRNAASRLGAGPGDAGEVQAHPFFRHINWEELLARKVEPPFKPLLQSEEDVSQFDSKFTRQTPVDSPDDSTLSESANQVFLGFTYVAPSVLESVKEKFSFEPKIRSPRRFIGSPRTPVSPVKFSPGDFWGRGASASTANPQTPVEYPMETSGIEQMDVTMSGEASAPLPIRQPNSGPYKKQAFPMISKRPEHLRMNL

O=C(Nc1ccc(Oc2ncnc3[nH]ncc23)cc1)Nc1ccc(Cl)c(C(F)(F)F)c1
kinase still bound, per cent of control (TEK (human)): 25%
kinase still bound, per cent of control (NTRK1 (human)): 41%
kinase still bound, per cent of control (MKNK2 (human)): 0.05%
kinase still bound, per cent of control (RIOK2 (human)): 100%
kinase still bound, per cent of control (NUAK2 (human)): 73%
kinase still bound, per cent of control (MAPK14 (human)): 0%
kinase still bound, per cent of control (RET (human)): 0%
kinase still bound, per cent of control (CSNK1G2 (human)): 94%
kinase still bound, per cent of control (MARK3 (human)): 75%
kinase still bound, per cent of control (MAPK3 (human)): 100%
kinase still bound, per cent of control (ADCK3 (human)): 100%
kinase still bound, per cent of control (PLK3 (human)): 16%
kinase still bound, per cent of control (CHUK (human)): 51%
kinase still bound, per cent of control (PIM2 (human)): 100%
kinase still bound, per cent of control (WNK1 (human)): 100%
kinase still bound, per cent of control [1]: 75%
kinase still bound, per cent of control (TSSK1B (human)): 86%
kinase still bound, per cent of control (RPS6KB1 (human)): 69%
kinase still bound, per cent of control (SRC (human)): 70%
kinase still bound, per cent of control (ERN1 (human)): 100%
kinase still bound, per cent of control (MAP4K1 (human)): 61%
kinase still bound, per cent of control (PTK2 (human)): 94%
kinase still bound, per cent of control (PDGFRA (human)): 0.4%
kinase still bound, per cent of control (CSNK1A1 (human)): 100%
kinase still bound, per cent of control (PAK4 (human)): 100%
kinase still bound, per cent of control (MAP2K2 (human)): 60%
kinase still bound, per cent of control (PIK3CA (human)): 100%
kinase still bound, per cent of control (MATK (human)): 100%
kinase still bound, per cent of control (AXL (human)): 25%
kinase still bound, per cent of control (NEK1 (human)): 85%
kinase still bound, per cent of control (MAP3K9 (human)): 100%
kinase still bound, per cent of control (MAP3K13 (human)): 92%
kinase still bound, per cent of control (PAK2 (human)): 97%
kinase still bound, per cent of control (STK25 (human)): 79%
kinase still bound, per cent of control (AKT2 (human)): 96%
kinase still bound, per cent of control (MAPK8 (human)): 85%
kinase still bound, per cent of control [2]: 88%
kinase still bound, per cent of control (ANKK1 (human)): 89%
kinase still bound, per cent of control (PRKCE (human)): 86%
kinase still bound, per cent of control (CAMK2A (human)): 90%
kinase still bound, per cent of control (STK16 (human)): 100%

Reference: the kinase profiling compilation of Christmann-Franck et al. (2016)
